Experiment: xn = mol fraction of the nth substance listed
Details: 298.15 K, 101 kPa, Liquid, Vibrating tube method

CN1CCCC1=O [N-methylpyrrolidone] + CCCC[NH3+].O=[N+]([O-])[O-]
Details | mass density [kg/m3]
x2 = 0 | 1028.25

CN1CCCC1=O [N-methylpyrrolidone] + CCC[NH3+].O=[N+]([O-])[O-]
Details | mass density [kg/m3]
x2 = 0 | 1028.25

CN1CCCC1=O [N-methylpyrrolidone] + CC[NH3+].O=[N+]([O-])[O-]
Details | mass density [kg/m3]
x2 = 0 | 1028.25

CC[NH3+].O=[N+]([O-])[O-] [ethylammonium nitrate] + CN1CCCC1=O
Details | mass density [kg/m3]
x1 = 0.049 | 1040.83
x1 = 0.138 | 1059.94
x1 = 0.166 | 1065.8
x1 = 0.223 | 1076.59
x1 = 0.242 | 1080.27
x1 = 0.292 | 1089.23
x1 = 0.347 | 1098.75
x1 = 0.413 | 1109.61
x1 = 0.457 | 1116.43
x1 = 0.48 | 1119.62
x1 = 0.54 | 1129.36
x1 = 0.592 | 1137.95
x1 = 0.63 | 1143.72
x1 = 0.684 | 1153.22
x1 = 0.763 | 1167.68
x1 = 0.83 | 1179.62
x1 = 0.915 | 1195.54
x1 = 0.981 | 1207.67
x1 = 1 | 1210.76

CCCC[NH3+].O=[N+]([O-])[O-] [n-butylammonium nitrate] + CN1CCCC1=O
Details | mass density [kg/m3]
x1 = 0.048 | 1036.44
x1 = 0.108 | 1044.94
x1 = 0.163 | 1051.72
x1 = 0.267 | 1062.31
x1 = 0.365 | 1069.91
x1 = 0.439 | 1074.93
x1 = 0.538 | 1080.43
x1 = 0.67 | 1088.06
x1 = 0.843 | 1097.2
x1 = 1 | 1105.49

CCC[NH3+].O=[N+]([O-])[O-] [propylammonium nitrate] + CN1CCCC1=O
Details | mass density [kg/m3]
x1 = 0.046 | 1038.38
x1 = 0.167 | 1059.42
x1 = 0.202 | 1064.53
x1 = 0.263 | 1073.3
x1 = 0.329 | 1081.53
x1 = 0.406 | 1090.6
x1 = 0.461 | 1096.52
x1 = 0.551 | 1105.72
x1 = 0.582 | 1108.68
x1 = 0.628 | 1113.18
x1 = 0.661 | 1116.42
x1 = 0.721 | 1122.67
x1 = 0.781 | 1128.74
x1 = 0.808 | 1130.96
x1 = 0.862 | 1136.73

From the NIST ThermoML archive (doi:10.1016/j.fluid.2014.09.031)
